This note sets out measurements from paper PMC5584254, “Identification of novel small molecule Beclin 1 mimetics activating autophagy” (Oncotarget, 2017).

Structures can show the parent of a compound that is named as a salt. Where two headings read alike, the source gives them in different places.

Test [1] deals with T1, Bcl-xL-Beclin 1 complex (Homo sapiens, UniProt Q07817).
T1 construct: made in house
Put plainly: FP-based high-throughput screening, primary screen. As to conditions: first screen; 40 μM compound, 2.5 μM Bcl-xL, 400 nM 20-mer. It is filed as binding. From the text:
Next, we optimized the FP competitive binding assay in a 384-well microplate format and carried out a small-scale HTS using a small library, which contains 6580 compounds from Prestwick, Microsource and our in-house CMLD library. Then, the FP assay was optimized and applied in screening the larger Chembridge library consisting of 43736 compounds. HTS cascades are shown in Supplementary Figure 1A–1B. […] All chemical structures can be found on the PubChem website (http://pubchem.ncbi.nlm.nih.gov/).
(§1) Then the plates were read by Envision (Perkin Elmer, Waltham, MA). […] The hits were selected from library stocks and reconfirmed in a concentration response FP assay (6 doses ranging from 5 μM to 160 μM or 8 doses ranging from 0.5 μM to 60 μM).

Test [2] deals with T1, Bcl-xL-Beclin 1 complex. Description: Concentration response FP reconfirmation of HTS hits. It is filed as binding. As to conditions: for inhibition at 5 µM: read-out: Dose-response (% Inhibition) 5 μM; for inhibition at 10 µM: read-out: Dose-response (% Inhibition) 10 μM; for inhibition at 20 µM: read-out: Dose-response (% Inhibition) 20 μM; for inhibition at 40 µM: read-out: Dose-response (% Inhibition) 40 μM; for inhibition at 80 µM: read-out: Dose-response (% Inhibition) 80 μM; for inhibition at 160 µM: read-out: Dose-response (% Inhibition) 160 μM. As for the experimental part: as §1

T1 sequence (Q07817 whole entry, one chain of several): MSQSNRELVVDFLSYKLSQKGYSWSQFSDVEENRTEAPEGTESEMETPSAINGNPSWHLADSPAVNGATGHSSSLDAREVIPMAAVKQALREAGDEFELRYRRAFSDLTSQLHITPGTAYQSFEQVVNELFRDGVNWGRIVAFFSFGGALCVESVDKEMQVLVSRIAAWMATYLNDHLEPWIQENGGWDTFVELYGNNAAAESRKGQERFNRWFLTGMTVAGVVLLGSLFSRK

Turning to `O=C1c2c(O)ccc(O)c2C(=O)c2c(NCCNCCO)ccc(NCCNCCO)c21` [Compound A11, MITOXANTRONE HYDROCHLORIDE], at Bcl-xL-Beclin 1 complex [1], the “Primary Screen mP” value is 99.8 mP and the inhibition (as a rule, the drop in the measured response relative to a control, in per cent) at 40 µM stood at 26.3%. Moreover, the inhibition at 5 µM at Bcl-xL-Beclin 1 complex [2] (5 μM, hits of first screen) was -2.2%. On Bcl-xL-Beclin 1 complex [2] (10 μM, hits of first screen), the inhibition at 10 µM is 4.3%. Also, the inhibition at 20 µM on Bcl-xL-Beclin 1 complex [2] (20 μM, hits of first screen) was 11.2%. At Bcl-xL-Beclin 1 complex [2] (40 μM, hits of first screen), the inhibition at 40 µM was found to be 19.5%. Also, the inhibition at 80 µM at Bcl-xL-Beclin 1 complex [2] (80 μM, hits of first screen) is 32.9%. The inhibition at 160 µM at Bcl-xL-Beclin 1 complex [2] (160 μM, hits of first screen) worked out at 32.2%.

Turning to `CC[n+]1c(-c2ccccc2)c2cc(N)ccc2c2ccc(N)cc21` [Compound A12, HOMIDIUM BROMIDE], on Bcl-xL-Beclin 1 complex [1], the “Primary Screen mP” value worked out at 113.8 mP and the inhibition at 40 µM was determined as 15.3%. At Bcl-xL-Beclin 1 complex [2], the inhibition at 5 µM was 3.5%, the inhibition at 10 µM was found to be 5.5%, the inhibition at 20 µM worked out at 7.2% and the inhibition at 40 µM was 12%. At Bcl-xL-Beclin 1 complex [2], the inhibition at 80 µM is 26.1% and the inhibition at 160 µM came out at 39.2%.

Take `O=C(O)C1=CC(=C(c2ccc(O)c(C(=O)O)c2)c2ccc(O)c(C(=O)O)c2)C=CC1=O` [Compound A14, AURIN TRICARBOXYLIC ACID]: at Bcl-xL-Beclin 1 complex [1], the “Primary Screen mP” value is reported as 129.7 mP and the inhibition at 40 µM worked out at 6.76%. In addition, the inhibition at 5 µM at Bcl-xL-Beclin 1 complex [2] (5 μM, hits of first screen) is 0.7%. On Bcl-xL-Beclin 1 complex [2] (10 μM, hits of first screen), the inhibition at 10 µM was found to be 2%. For the same compound, at Bcl-xL-Beclin 1 complex [2] (20 μM, hits of first screen), the inhibition at 20 µM was 3.8%. Besides, on Bcl-xL-Beclin 1 complex [2] (40 μM, hits of first screen), the inhibition at 40 µM came to 4.8%. The inhibition at 80 µM at Bcl-xL-Beclin 1 complex [2] (80 μM, hits of first screen) turned out to be 8.1%. In addition, at Bcl-xL-Beclin 1 complex [2] (160 μM, hits of first screen), the inhibition at 160 µM was 8.6%.

Regarding `CCCc1nc2c(C)cc(-c3nc4ccccc4n3C)cc2n1Cc1ccc(-c2ccccc2C(=O)O)cc1` [Compound A16], on Bcl-xL-Beclin 1 complex [1], the “Primary Screen mP” value is on record as 125.4 mP and the inhibition at 40 µM was found to be 5.2%. In addition, the inhibition at 5 µM on Bcl-xL-Beclin 1 complex [2] (5 μM, hits of first screen) is -1.1%. The inhibition at 10 µM at Bcl-xL-Beclin 1 complex [2] (10 μM, hits of first screen) was -0.6%. Besides, on Bcl-xL-Beclin 1 complex [2] (20 μM, hits of first screen), the inhibition at 20 µM is -0.1%. For the same compound, the inhibition at 40 µM on Bcl-xL-Beclin 1 complex [2] (40 μM, hits of first screen) is 1.6%. Besides, the inhibition at 80 µM at Bcl-xL-Beclin 1 complex [2] (80 μM, hits of first screen) was determined as 6.3%. At Bcl-xL-Beclin 1 complex [2] (160 μM, hits of first screen), the inhibition at 160 µM came out at 11.1%.

In the case of `CCCCCCCCCc1ccc(OCCOCCOCCOCCOCCOCCOCCOCCOCCO)cc1` [Compound A17, NONOXYNOL-9], at Bcl-xL-Beclin 1 complex [1], the “Primary Screen mP” value was determined as 127.2 mP and the inhibition at 40 µM was 9.04%. Also, at Bcl-xL-Beclin 1 complex [2], the inhibition at 5 µM was -0.3%, the inhibition at 10 µM was 6.2%, the inhibition at 20 µM stood at 5.9% and the inhibition at 40 µM stood at 5.3%. On Bcl-xL-Beclin 1 complex [2], the inhibition at 80 µM was 12.9% and the inhibition at 160 µM is 11.1%.

`CN1C[C@H](C(=O)N[C@]2(C)O[C@@]3(O)[C@@H]4CCCN4C(=O)[C@H](Cc4ccccc4)N3C2=O)C=C2c3cccc4[nH]cc(c34)C[C@H]21` [Compound A18, ERGOTAMINE TARTRATE]: on Bcl-xL-Beclin 1 complex [1], the “Primary Screen mP” value came out at 122.3 mP and the inhibition at 40 µM stood at 11%. Further, on Bcl-xL-Beclin 1 complex [2], the inhibition at 5 µM is -0.2%, the inhibition at 10 µM came to 0.3%, the inhibition at 20 µM came to 3.3% and the inhibition at 40 µM was found to be 5.8%. Moreover, on Bcl-xL-Beclin 1 complex [2], the inhibition at 80 µM came out at 15.6% and the inhibition at 160 µM is 25.6%.

With `CCCCCCCCCCCCCCCCC(C(=O)O)C(O)(CC(=O)O)C(=O)O` (stereo not drawn) [Compound A19, AGARIC ACID], at Bcl-xL-Beclin 1 complex [1], the “Primary Screen % Inhibition” value came to 15.85% and the “Primary Screen mP” value was found to be 118.2 mP. Besides, the “Dose-response (% Inhibition) 5 μM” value at Bcl-xL-Beclin 1 complex [2] (5 μM, hits of first screen) is on record as 3.8%. For the same compound, the “Dose-response (% Inhibition) 10 μM” value on Bcl-xL-Beclin 1 complex [2] (10 μM, hits of first screen) was 6.3%. In addition, the “Dose-response (% Inhibition) 20 μM” value on Bcl-xL-Beclin 1 complex [2] (20 μM, hits of first screen) turned out to be 9.1%. Also, the “Dose-response (% Inhibition) 40 μM” value at Bcl-xL-Beclin 1 complex [2] (40 μM, hits of first screen) came out at 12.7%. At Bcl-xL-Beclin 1 complex [2] (80 μM, hits of first screen), the “Dose-response (% Inhibition) 80 μM” value came out at 20.3%. In addition, the “Dose-response (% Inhibition) 160 μM” value on Bcl-xL-Beclin 1 complex [2] (160 μM, hits of first screen) worked out at 20.9%.

In the case of `CCc1oc2ccccc2c1C(=O)c1cc(Br)c(O)c(Br)c1` [Compound A20, BENZBROMARONE], on Bcl-xL-Beclin 1 complex [1], the “Primary Screen mP” value is listed as 125.0 mP and the inhibition at 40 µM was found to be 9.05%. Besides, the inhibition at 5 µM at Bcl-xL-Beclin 1 complex [2] (5 μM, hits of first screen) was determined as 0.2%. Besides, the inhibition at 10 µM on Bcl-xL-Beclin 1 complex [2] (10 μM, hits of first screen) is 0.6%. Further, the inhibition at 20 µM on Bcl-xL-Beclin 1 complex [2] (20 μM, hits of first screen) was determined as 1%. Further, at Bcl-xL-Beclin 1 complex [2] (40 μM, hits of first screen), the inhibition at 40 µM stood at 1.1%. Besides, at Bcl-xL-Beclin 1 complex [2] (80 μM, hits of first screen), the inhibition at 80 µM came to 6.1%. Besides, the inhibition at 160 µM at Bcl-xL-Beclin 1 complex [2] (160 μM, hits of first screen) worked out at 11.3%.

As for `OCCN(CCO)c1nc(N2CCCCC2)c2nc(N(CCO)CCO)nc(N3CCCCC3)c2n1` [Compound A22, DIPYRIDAMOLE], at Bcl-xL-Beclin 1 complex [1], the “Primary Screen mP” value is given as 72.7 mP and the inhibition at 40 µM amounted to 47.8%. The inhibition at 5 µM at Bcl-xL-Beclin 1 complex [2] (5 μM, hits of first screen) was 10.1%. For the same compound, at Bcl-xL-Beclin 1 complex [2] (10 μM, hits of first screen), the inhibition at 10 µM came to 21%. In addition, the inhibition at 20 µM on Bcl-xL-Beclin 1 complex [2] (20 μM, hits of first screen) came to 35.1%. Besides, the inhibition at 40 µM on Bcl-xL-Beclin 1 complex [2] (40 μM, hits of first screen) turned out to be 46.7%. Further, the inhibition at 80 µM at Bcl-xL-Beclin 1 complex [2] (80 μM, hits of first screen) is 62.9%. On Bcl-xL-Beclin 1 complex [2] (160 μM, hits of first screen), the inhibition at 160 µM amounted to 72.4%.
